In patent publication US20110178143A1, “THERAPEUTIC COMPOUNDS” (ALLERGAN, INC., priority 2007, published 2011):
Like-named read-outs stand apart in the source and are kept apart here.

Assays:
alpha2C receptor = target: T1, alpha2C receptor (Homo sapiens, UniProt P18825); assay: Receptor Selection and Amplification Technology (RSAT) assay, alpha 2C; assay type: cell-based; details: for Emax: RSAT, maximal effect relative to standard full agonist brimonidine (UK14304), read-out: Alpha 2C intrinsic activity (IA), in parentheses
T1 construct: expressed in transfected cells; host or cells: NIH-3T3 cells
T1 sequence (P18825 1-462): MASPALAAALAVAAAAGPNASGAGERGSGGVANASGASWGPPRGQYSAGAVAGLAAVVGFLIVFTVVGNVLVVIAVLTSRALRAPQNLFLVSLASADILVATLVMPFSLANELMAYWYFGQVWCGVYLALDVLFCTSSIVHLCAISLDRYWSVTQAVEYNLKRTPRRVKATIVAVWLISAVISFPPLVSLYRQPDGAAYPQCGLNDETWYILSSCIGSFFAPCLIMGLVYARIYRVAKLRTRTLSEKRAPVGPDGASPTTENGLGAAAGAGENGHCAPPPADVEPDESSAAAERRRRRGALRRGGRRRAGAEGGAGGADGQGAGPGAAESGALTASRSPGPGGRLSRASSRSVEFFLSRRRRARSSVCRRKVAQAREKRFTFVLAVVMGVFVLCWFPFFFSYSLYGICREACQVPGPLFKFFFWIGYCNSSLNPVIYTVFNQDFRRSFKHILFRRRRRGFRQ
Method: (§1) Receptor Selection and Amplification Technology (RSAT) Assay
(§2) The RSAT assay measures a receptor-mediated loss of contact inhibition that results in selective proliferation of receptor-containing cells in a mixed population of confluent cells. The increase in cell number is assessed with an appropriate transfected marker gene such as β-galactosidase, the activity of which can be easily measured in a 96-well format. Receptors that activate the G protein, Gq, elicit this response. Alpha2 receptors, which normally couple to Gi, activate the RSAT response when coexpressed with a hybrid Gq protein that has a Gi receptor recognition domain, called Gq/i5.
(§3) NIH-3T3 cells are plated at a density of 2×10^6 cells in 15 cm dishes and maintained in Dulbecco's modified Eagle's medium supplemented with 10% calf serum. One day later, cells are cotransfected by calcium phosphate precipitation with mammalian expression plasmids encoding p-SV-β-galactosidase (5-10 μg), receptor (1-2 μg) and G protein (1-2 μg). 40 μg salmon sperm DNA may also be included in the transfection mixture. Fresh media is added on the following day and 1-2 days later, cells are harvested and frozen in 50 assay aliquots. Cells are thawed and 100 μl added to 100 μl aliquots of various concentrations of drugs in triplicate in 96-well dishes. Incubations continue 72-96 hr at 37° C. After washing with phosphate-buffered saline, β-galactosidase enzyme activity is determined by adding 200 μl of the chromogenic substrate (consisting of 3.5 mM o-nitrophenyl-β-D-galactopyranoside and 0.5% nonidet P-40 in phosphate buffered saline), incubating overnight at 30° C. and measuring optical density at 420 nm. The absorbance is a measure of enzyme activity, which depends on cell number and reflects a receptor-mediated cell proliferation. The efficacy or intrinsic activity is calculated as a ratio of the maximal effect of the drug to the maximal effect of a standard full agonist for each receptor subtype. Brimonidine, also called UK14304, the chemical structure of which is shown below, is used as the standard agonist for the alpha2A, alpha2B and alpha2c receptors. The EC50 is the concentration at which the drug effect is half of its maximal effect.
(§4) EC50 values are nanomolar. ND stands for “not determinable” at concentrations less than 10 micromolar. IA stands for “intrinsic activity.”

alpha2A receptor = target: T2, alpha2A receptor (Homo sapiens, UniProt P08913); assay: cell-based; details: for Emax: read-out: Alpha 2A intrinsic activity (IA), in parentheses
T2 sequence (P08913 1-465): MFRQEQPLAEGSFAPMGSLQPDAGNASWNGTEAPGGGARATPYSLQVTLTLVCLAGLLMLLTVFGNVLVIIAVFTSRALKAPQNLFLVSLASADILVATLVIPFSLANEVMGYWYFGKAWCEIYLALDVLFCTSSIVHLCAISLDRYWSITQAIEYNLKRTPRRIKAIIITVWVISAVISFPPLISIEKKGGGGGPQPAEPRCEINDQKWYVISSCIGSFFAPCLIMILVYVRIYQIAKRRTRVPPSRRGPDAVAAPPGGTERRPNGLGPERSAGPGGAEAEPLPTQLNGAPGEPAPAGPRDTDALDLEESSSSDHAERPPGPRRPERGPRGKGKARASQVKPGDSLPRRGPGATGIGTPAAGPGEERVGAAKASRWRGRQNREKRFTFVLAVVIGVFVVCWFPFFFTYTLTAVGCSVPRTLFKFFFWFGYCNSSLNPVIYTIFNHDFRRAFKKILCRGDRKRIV
Method: NIH-3T3 cells are plated at a density of 2×10^6 cells in 15 cm dishes and maintained in Dulbecco's modified Eagle's medium supplemented with 10% calf serum. One day later, cells are cotransfected by calcium phosphate precipitation with mammalian expression plasmids encoding p-SV-β-galactosidase (5-10 μg), receptor (1-2 μg) and G protein (1-2 μg). 40 μg salmon sperm DNA may also be included in the transfection mixture. Fresh media is added on the following day and 1-2 days later, cells are harvested and frozen in 50 assay aliquots. Cells are thawed and 100 μl added to 100 μl aliquots of various concentrations of drugs in triplicate in 96-well dishes. Incubations continue 72-96 hr at 37° C. After washing with phosphate-buffered saline, β-galactosidase enzyme activity is determined by adding 200 μl of the chromogenic substrate (consisting of 3.5 mM o-nitrophenyl-β-D-galactopyranoside and 0.5% nonidet P-40 in phosphate buffered saline), incubating overnight at 30° C. and measuring optical density at 420 nm. The absorbance is a measure of enzyme activity, which depends on cell number and reflects a receptor-mediated cell proliferation. The efficacy or intrinsic activity is calculated as a ratio of the maximal effect of the drug to the maximal effect of a standard full agonist for each receptor subtype. […] The EC50 is the concentration at which the drug effect is half of its maximal effect.

alpha2B receptor = target: T3, alpha2B receptor (Homo sapiens, UniProt P18089); assay: Receptor Selection and Amplification Technology (RSAT) assay, alpha 2B; assay type: cell-based; details: for Emax: read-out: Alpha 2B intrinsic activity (IA), in parentheses
T3 construct: expressed in transfected cells; host or cells: NIH-3T3 cells
T3 sequence (P18089 1-450): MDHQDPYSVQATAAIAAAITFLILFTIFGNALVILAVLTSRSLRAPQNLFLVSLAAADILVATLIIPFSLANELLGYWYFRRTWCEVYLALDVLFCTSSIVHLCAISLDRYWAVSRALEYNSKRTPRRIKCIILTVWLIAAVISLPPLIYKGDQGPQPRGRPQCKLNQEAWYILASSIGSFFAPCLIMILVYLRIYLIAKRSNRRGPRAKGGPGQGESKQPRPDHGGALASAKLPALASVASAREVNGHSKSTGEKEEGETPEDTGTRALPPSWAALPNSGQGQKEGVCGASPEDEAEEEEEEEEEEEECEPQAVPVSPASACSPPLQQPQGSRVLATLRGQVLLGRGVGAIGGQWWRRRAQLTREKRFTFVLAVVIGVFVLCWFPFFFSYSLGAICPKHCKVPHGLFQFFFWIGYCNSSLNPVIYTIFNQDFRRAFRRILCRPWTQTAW
Method: as §1, §2, §3, §4

[1] = RSAT in transfected NIH-3T3 cells, nd = not determinable at concentrations less than 10 micromolar, read-out: Alpha 2C EC50
[2] = RSAT in transfected NIH-3T3 cells, nd = not determinable at concentrations less than 10 micromolar, read-out: Alpha 2B EC50

| SMILES | EC50 (alpha2C receptor; [1]) [µM] | Emax (alpha2C receptor) [%] | Emax (alpha2A receptor) [%] | EC50 (alpha2B receptor) [µM] | Emax (alpha2B receptor) [%] | EC50 (alpha2C receptor) [µM] | EC50 (alpha2B receptor; [2]) [µM] | EC50 (alpha2A receptor) [µM] |
| --- | --- | --- | --- | --- | --- | --- | --- | --- |
| Cc1cccc2c1CCC2NC1=NCCN1 (stereo not shown) | 0.429 | 38 | 20 | 0.0057 | 98 |  |  |  |
| Cc1cccc2c1CC[C@H]2NC1=NCCN1 |  | 11 | 11 | 0.0334 | 106 |  |  |  |
| Cc1cccc2c1CC[C@@H]2NC1=NCCN1 |  | 62 | 16 | 0.0045 | 125 | 0.082 |  |  |
| Brc1cccc2c1CCC2NC1=NCCN1 (stereo not shown) |  | 12 | 7 | 0.0122 | 71 |  |  |  |
| c1ccc2c(c1)CCC2NC1=NCCN1 (stereo not shown) | 0.207 | 46 | 3 | 0.017 | 93 |  |  |  |
| c1ccc2c(c1)CC[C@@H]2NC1=NCCN1 |  | 11 | 4 | 0.043 | 82 |  |  |  |
| Cc1ccc2c(c1)C(NC1=NCCN1)CC2 (stereo not shown) |  | 7 | 7 |  | 34 |  | 0.473 |  |
| c1ccc2c(c1)CC(NC1=NCCN1)C2 |  | 5 | 5 |  | 36 |  | 0.061 |  |
| Cc1cccc2c1CC[C@@H]2NC1=NCCS1 | 0.023 | 96 | 57 |  | 138 |  | 0.0034 | 0.143 |
| CC1CC(NC2=NCCS2)c2ccccc21 (stereo not shown) |  | 41 | 25 | 0.01 | 99 | 0.086 |  | 0.18 |
| CC1CC(NC2=NCCO2)c2ccccc21 (stereo not shown) | 0.0198 | 50 | 25 |  | 112 |  | 0.0022 | 0.007 |
| c1ccc2c(c1)CCC2NC1=NCCS1 (stereo not shown) |  | 102 | 14 | 0.0075 | 107 | 0.054 |  |  |
